Assays:
[1] = target: Atypical kinase COQ8B, mitochondrial (Homo sapiens) (UniProt Q96D53); conditions: Compound concentration 1000.0 nM
[2] = target: ALK tyrosine kinase receptor (Homo sapiens) (UniProt Q9UM73); conditions: Compound concentration 1000.0 nM
[3] = tested on: ALK tyrosine kinase receptor (Homo sapiens), Q9UM73 [C1156Y]; conditions: Compound concentration 1000.0 nM
[4] = target: Ankyrin repeat and protein kinase domain-containing protein 1 (Homo sapiens) (UniProt Q8NFD2); conditions: Compound concentration 1000.0 nM
Chain of Ankyrin repeat and protein kinase domain-containing protein 1 (Homo sapiens) (Q8NFD2 whole entry, the tested form may be a part): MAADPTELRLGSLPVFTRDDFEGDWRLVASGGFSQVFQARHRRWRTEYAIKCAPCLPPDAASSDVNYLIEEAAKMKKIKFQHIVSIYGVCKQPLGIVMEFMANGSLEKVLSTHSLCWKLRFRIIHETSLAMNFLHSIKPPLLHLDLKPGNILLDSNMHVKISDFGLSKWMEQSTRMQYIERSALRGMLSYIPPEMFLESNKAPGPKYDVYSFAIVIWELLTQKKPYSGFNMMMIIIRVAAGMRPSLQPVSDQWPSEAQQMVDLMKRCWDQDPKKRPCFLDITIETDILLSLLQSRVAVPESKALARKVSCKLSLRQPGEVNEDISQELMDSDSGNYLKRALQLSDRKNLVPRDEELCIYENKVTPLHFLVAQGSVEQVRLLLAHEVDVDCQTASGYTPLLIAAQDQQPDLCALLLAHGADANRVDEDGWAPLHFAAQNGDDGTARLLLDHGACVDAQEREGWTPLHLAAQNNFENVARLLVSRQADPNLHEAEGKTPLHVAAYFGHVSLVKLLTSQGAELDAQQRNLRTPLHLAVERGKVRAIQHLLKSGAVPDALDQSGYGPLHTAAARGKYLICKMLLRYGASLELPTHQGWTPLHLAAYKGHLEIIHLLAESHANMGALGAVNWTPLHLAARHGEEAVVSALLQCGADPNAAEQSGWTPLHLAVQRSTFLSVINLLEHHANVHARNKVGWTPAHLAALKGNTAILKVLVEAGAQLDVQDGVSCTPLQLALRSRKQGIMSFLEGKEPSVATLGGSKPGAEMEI

[5] = target: Tyrosine-protein kinase BTK (Homo sapiens) (UniProt Q06187); conditions: Compound concentration 1000.0 nM
[6] = target: Calcium/calmodulin-dependent protein kinase type 1 (Homo sapiens) (UniProt Q14012); conditions: Compound concentration 1000.0 nM
Chain of Calcium/calmodulin-dependent protein kinase type 1 (Homo sapiens) (Q14012 whole entry, looked up): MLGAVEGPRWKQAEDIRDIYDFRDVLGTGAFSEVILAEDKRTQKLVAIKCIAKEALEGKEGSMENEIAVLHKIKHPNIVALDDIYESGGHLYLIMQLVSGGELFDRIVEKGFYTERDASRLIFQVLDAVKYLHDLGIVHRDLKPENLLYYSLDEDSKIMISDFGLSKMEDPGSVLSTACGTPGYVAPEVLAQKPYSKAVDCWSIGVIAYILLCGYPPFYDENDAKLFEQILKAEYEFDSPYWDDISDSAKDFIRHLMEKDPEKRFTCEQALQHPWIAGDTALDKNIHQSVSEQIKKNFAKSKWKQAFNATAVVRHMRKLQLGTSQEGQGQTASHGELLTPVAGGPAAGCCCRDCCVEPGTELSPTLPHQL

[7] = target: Calcium/calmodulin-dependent protein kinase kinase 2 (Homo sapiens) (UniProt Q96RR4); conditions: Compound concentration 1000.0 nM
[8] = target: Cyclin-dependent kinase 19 (Homo sapiens) (UniProt Q9BWU1); conditions: Compound concentration 1000.0 nM
[9] = target: Dual specificity protein kinase CLK1 (Homo sapiens) (UniProt P49759); conditions: Compound concentration 1000.0 nM
[10] = tested on: Epidermal growth factor receptor (Homo sapiens), P00533 [L858R,T790M]; conditions: Compound concentration 1000.0 nM
[11] = tested on: Epidermal growth factor receptor (Homo sapiens), P00533 [L861Q]; conditions: Compound concentration 1000.0 nM
[12] = target: Ephrin type-A receptor 2 (Homo sapiens) (UniProt P29317); conditions: Compound concentration 1000.0 nM
[13] = target: Mitogen-activated protein kinase 6 (Homo sapiens) (UniProt Q16659); conditions: Compound concentration 1000.0 nM
[14] = target: Fibroblast growth factor receptor 1 (Homo sapiens) (UniProt P11362); conditions: Compound concentration 1000.0 nM
[15] = target: Fibroblast growth factor receptor 2 (Homo sapiens) (UniProt P21802); conditions: Compound concentration 1000.0 nM
[16] = target: Homeodomain-interacting protein kinase 3 (Homo sapiens) (UniProt Q9H422); conditions: Compound concentration 1000.0 nM
[17] = target: Inhibitor of nuclear factor kappa-B kinase subunit epsilon (Homo sapiens) (UniProt Q14164); conditions: Compound concentration 1000.0 nM
[18] = target: Insulin receptor (Homo sapiens) (UniProt P06213); conditions: Compound concentration 1000.0 nM
Chain of Insulin receptor (Homo sapiens) (P06213 28-758 limits assumed): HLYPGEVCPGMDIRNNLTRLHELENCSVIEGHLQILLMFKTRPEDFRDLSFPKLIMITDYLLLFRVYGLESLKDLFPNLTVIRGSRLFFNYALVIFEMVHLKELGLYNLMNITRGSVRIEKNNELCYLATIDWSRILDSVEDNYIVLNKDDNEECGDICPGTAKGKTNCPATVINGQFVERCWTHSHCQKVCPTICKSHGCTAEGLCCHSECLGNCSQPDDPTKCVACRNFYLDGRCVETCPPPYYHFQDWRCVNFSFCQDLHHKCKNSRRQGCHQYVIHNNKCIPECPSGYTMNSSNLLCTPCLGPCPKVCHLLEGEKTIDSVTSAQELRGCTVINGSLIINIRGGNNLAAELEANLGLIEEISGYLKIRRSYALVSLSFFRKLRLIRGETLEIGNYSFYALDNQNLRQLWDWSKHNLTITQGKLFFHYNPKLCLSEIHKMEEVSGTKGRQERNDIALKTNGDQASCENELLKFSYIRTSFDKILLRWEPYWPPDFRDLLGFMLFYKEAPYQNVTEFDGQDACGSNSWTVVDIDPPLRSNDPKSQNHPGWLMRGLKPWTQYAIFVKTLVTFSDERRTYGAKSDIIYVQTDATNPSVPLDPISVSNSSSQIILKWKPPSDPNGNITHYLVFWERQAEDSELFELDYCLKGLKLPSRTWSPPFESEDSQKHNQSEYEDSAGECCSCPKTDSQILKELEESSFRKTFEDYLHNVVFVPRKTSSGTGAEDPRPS
Chain of Insulin receptor (Homo sapiens) (P06213 763-1382 limits assumed): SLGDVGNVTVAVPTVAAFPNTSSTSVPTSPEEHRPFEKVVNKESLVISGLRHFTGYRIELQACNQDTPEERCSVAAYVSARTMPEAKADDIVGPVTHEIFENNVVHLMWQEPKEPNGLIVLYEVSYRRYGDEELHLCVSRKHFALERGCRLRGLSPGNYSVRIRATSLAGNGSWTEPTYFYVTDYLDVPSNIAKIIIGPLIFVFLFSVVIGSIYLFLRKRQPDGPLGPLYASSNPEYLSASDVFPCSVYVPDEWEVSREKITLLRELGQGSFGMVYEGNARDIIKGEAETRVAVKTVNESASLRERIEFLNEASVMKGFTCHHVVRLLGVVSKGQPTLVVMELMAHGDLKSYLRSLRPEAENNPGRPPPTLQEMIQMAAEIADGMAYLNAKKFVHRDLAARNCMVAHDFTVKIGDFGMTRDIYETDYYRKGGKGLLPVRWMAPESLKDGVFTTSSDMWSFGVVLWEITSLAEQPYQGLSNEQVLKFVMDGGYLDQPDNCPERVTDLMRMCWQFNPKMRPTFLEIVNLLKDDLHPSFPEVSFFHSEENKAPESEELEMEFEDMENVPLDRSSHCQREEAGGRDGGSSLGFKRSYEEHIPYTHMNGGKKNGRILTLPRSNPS

[19] = target: LIM domain kinase 1 (Homo sapiens) (UniProt P53667); conditions: Compound concentration 1000.0 nM
[20] = target: Leucine-rich repeat serine/threonine-protein kinase 2 (Homo sapiens) (UniProt Q5S007); conditions: Compound concentration 1000.0 nM
[21] = target: Serine/threonine-protein kinase MAK (Homo sapiens) (UniProt P20794); conditions: Compound concentration 1000.0 nM
[22] = target: Mitogen-activated protein kinase kinase kinase 1 (Homo sapiens) (UniProt Q13233); conditions: Compound concentration 1000.0 nM
[23] = target: Microtubule-associated serine/threonine-protein kinase 1 (Homo sapiens) (UniProt Q9Y2H9); conditions: Compound concentration 1000.0 nM
Chain of Microtubule-associated serine/threonine-protein kinase 1 (Homo sapiens) (Q9Y2H9 whole entry, looked up): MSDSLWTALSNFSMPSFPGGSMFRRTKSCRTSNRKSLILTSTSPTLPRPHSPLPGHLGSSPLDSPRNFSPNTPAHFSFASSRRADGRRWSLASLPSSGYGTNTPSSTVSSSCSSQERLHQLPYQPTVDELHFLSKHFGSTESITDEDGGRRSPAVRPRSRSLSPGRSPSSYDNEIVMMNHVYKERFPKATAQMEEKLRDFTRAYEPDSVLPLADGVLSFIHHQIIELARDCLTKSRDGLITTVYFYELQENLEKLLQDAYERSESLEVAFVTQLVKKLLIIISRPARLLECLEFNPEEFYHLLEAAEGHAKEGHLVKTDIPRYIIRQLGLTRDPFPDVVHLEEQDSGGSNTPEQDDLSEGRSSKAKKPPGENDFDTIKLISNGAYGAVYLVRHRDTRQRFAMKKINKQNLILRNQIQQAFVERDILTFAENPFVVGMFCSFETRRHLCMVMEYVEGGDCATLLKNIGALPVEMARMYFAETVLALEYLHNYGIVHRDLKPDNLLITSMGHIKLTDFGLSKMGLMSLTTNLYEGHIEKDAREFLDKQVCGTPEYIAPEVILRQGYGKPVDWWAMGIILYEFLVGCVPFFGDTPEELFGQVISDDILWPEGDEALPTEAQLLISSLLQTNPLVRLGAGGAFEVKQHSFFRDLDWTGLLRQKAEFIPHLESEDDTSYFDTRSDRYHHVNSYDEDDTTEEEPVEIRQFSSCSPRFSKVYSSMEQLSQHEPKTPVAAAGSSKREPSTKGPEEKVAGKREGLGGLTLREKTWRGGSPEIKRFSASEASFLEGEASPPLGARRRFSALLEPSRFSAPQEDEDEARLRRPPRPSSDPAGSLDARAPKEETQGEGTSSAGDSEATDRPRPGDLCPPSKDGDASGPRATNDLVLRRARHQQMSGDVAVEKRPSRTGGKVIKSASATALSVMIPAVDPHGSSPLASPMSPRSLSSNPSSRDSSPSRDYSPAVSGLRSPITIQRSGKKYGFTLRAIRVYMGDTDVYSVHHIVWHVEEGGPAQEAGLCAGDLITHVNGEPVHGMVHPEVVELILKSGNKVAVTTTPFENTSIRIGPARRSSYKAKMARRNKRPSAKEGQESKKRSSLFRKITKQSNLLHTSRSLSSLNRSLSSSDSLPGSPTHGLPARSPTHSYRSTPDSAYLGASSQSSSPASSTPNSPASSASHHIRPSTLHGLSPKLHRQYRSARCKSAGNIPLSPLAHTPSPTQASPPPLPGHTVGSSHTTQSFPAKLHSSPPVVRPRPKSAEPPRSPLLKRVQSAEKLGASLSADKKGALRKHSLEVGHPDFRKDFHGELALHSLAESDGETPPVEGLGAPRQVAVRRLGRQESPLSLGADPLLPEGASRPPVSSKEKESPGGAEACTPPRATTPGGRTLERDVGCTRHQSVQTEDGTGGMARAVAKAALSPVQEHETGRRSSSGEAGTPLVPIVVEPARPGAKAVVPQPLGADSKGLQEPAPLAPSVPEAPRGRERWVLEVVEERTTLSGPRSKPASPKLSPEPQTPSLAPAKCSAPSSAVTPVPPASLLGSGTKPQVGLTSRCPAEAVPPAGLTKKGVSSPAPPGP

[24] = target: Serine/threonine-protein kinase MRCK alpha (Homo sapiens) (UniProt Q5VT25); conditions: Compound concentration 1000.0 nM
[25] = target: Serine/threonine-protein kinase mTOR (Homo sapiens) (UniProt P42345); conditions: Compound concentration 1000.0 nM
[26] = target: Muscle, skeletal receptor tyrosine-protein kinase (Homo sapiens) (UniProt O15146); conditions: Compound concentration 1000.0 nM
Chain of Muscle, skeletal receptor tyrosine-protein kinase (Homo sapiens) (O15146 whole entry): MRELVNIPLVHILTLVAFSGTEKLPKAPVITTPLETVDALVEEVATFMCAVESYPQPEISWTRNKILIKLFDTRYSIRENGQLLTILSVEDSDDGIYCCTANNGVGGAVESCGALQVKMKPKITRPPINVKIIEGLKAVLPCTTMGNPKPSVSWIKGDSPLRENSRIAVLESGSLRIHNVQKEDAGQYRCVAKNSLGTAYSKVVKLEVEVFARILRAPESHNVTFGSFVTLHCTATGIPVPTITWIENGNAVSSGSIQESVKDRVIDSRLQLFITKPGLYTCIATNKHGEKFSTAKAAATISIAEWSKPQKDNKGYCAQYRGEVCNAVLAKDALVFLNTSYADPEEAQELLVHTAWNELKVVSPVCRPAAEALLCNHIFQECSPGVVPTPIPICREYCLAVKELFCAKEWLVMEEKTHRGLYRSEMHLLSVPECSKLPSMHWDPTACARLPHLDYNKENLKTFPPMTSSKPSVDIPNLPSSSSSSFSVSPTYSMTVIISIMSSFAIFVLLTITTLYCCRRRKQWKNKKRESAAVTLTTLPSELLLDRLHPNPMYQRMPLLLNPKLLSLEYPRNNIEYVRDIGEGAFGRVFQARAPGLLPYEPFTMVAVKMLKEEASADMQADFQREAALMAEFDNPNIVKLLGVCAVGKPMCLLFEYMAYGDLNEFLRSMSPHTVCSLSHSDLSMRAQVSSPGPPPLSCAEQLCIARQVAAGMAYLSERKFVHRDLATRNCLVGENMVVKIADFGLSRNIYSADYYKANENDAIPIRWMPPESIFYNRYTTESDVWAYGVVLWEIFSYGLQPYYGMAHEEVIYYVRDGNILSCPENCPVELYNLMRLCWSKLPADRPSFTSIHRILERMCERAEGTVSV

[27] = target: Serine/threonine-protein kinase Nek9 (Homo sapiens) (UniProt Q8TD19); conditions: Compound concentration 1000.0 nM
[28] = target: Calcium-dependent protein kinase 1 (Plasmodium falciparum) (UniProt P62344); conditions: Compound concentration 1000.0 nM
[29] = target: Phosphatidylinositol 4,5-bisphosphate 3-kinase catalytic subunit alpha isoform (Homo sapiens) (UniProt P42336); conditions: Compound concentration 1000.0 nM
[30] = tested on: Phosphatidylinositol 4,5-bisphosphate 3-kinase catalytic subunit alpha isoform (Homo sapiens), P42336 [C420R]; conditions: Compound concentration 1000.0 nM
[31] = tested on: Phosphatidylinositol 4,5-bisphosphate 3-kinase catalytic subunit alpha isoform (Homo sapiens), P42336 [H1047L]; conditions: Compound concentration 1000.0 nM
[32] = tested on: Phosphatidylinositol 4,5-bisphosphate 3-kinase catalytic subunit alpha isoform (Homo sapiens), P42336 [I800L]; conditions: Compound concentration 1000.0 nM
[33] = target: Serine/threonine-protein kinase D2 (Homo sapiens) (UniProt Q9BZL6); conditions: Compound concentration 1000.0 nM
[34] = tested on: Proto-oncogene tyrosine-protein kinase receptor Ret (Homo sapiens), P07949 [V804L]; conditions: Compound concentration 1000.0 nM
[35] = target: Dual serine/threonine and tyrosine protein kinase (Homo sapiens) (UniProt Q6XUX3); conditions: Compound concentration 1000.0 nM
[36] = target: Ribosomal protein S6 kinase alpha-5 (Homo sapiens) (UniProt O75582); conditions: Compound concentration 1000.0 nM
[37] = target: Ribosomal protein S6 kinase alpha-1 (Homo sapiens) (UniProt Q15418); conditions: Compound concentration 1000.0 nM
[38] = target: Serine/threonine-protein kinase 33 (Homo sapiens) (UniProt Q9BYT3); conditions: Compound concentration 1000.0 nM
[39] = target: High affinity nerve growth factor receptor (Homo sapiens) (UniProt P04629); conditions: Compound concentration 1000.0 nM
[40] = target: Non-receptor tyrosine-protein kinase TYK2 (Homo sapiens) (UniProt P29597); conditions: Compound concentration 1000.0 nM
[41] = target: Vascular endothelial growth factor receptor 2 (Homo sapiens) (UniProt P35968); conditions: Compound concentration 1000.0 nM
[42] = target: Mitogen-activated protein kinase kinase kinase 20 (Homo sapiens) (UniProt Q9NYL2); conditions: Compound concentration 1000.0 nM
[43] = target: 5-hydroxytryptamine receptor 1A (Homo sapiens) (UniProt P08908); conditions: Compound concentration 10.0 uM
[44] = target: 5-hydroxytryptamine receptor 2C (Homo sapiens) (UniProt P28335); conditions: Compound concentration 10.0 uM
[45] = target: 5-hydroxytryptamine receptor 6 (Homo sapiens) (UniProt P50406); conditions: Compound concentration 10.0 uM

CC(=O)C1=C(C)N(c2cccc(C(F)(F)F)c2)C(=O)N[C@@H]1c1ccc(C#N)nc1 [BAY-678]
inactive: residual activity [1] 100% | residual activity [2] 100% | residual activity [3] 100% | residual activity [4] 100% | residual activity [5] 100% | residual activity [6] 86.7% | residual activity [7] 100% | residual activity [8] 96.9% | residual activity [9] 100% | residual activity [10] 100% | residual activity [11] 100% | residual activity [12] 100% | residual activity [13] 75.8% | residual activity [14] 100% | residual activity [15] 100% | residual activity [16] 100% | residual activity [17] 98.2% | residual activity [18] 89.3% | residual activity [19] 70.2% | residual activity [20] 80.7% | residual activity [21] 82.5% | residual activity [22] 100% | residual activity [23] 96.9% | residual activity [24] 100% | residual activity [25] 92.5% | residual activity [26] 100% | residual activity [27] 100% | residual activity [28] 94.8% | residual activity [29] 100% | residual activity [30] 100% | residual activity [31] 69% | residual activity [32] 75.4% | residual activity [33] 98.8% | residual activity [34] 97.4% | residual activity [35] 76.9% | residual activity [36] 83.4% | residual activity [37] 100% | residual activity [38] 91.6% | residual activity [39] 100% | residual activity [40] 91.3% | residual activity [41] 84% | residual activity [42] 96.9% | inhibition [43] 50% | inhibition [44] -2.88% | inhibition [45] -6.02%

Reference: ChEMBL document CHEMBL4507272 (2021)
